What was measured:
NBD1 = assay: Aggregation analysis using differential static light scattering (DSLS), thermal stability of NBD1; format: binding, Human; settings: 100 μM compound; ΔTagg = Tagg minus average Tagg of DMSO control wells; NBD1 0.2 mg/ml
Experimental: Example 23. Aggregation Analysis Using Differential Static Light Scattering (DSLS)
Purified recombinant NBD1 was produced using previously described methods (A. Schmidt, J. L. Mendoza, P. J. Thomas (2011) Biochemical and Biophysical Approaches to Probe CFTR Structure (365-376) M. D. Amaral, K. Kunzelmann (eds.), Cystic Fibrosis, Methods in Molecular Biology 741, Springer Science+Business Media). The effect of test compounds on thermal stability of NBD1 was evaluated by differential static light scattering (DSLS) using the Harbinger Stargazer-384 instrument (Epiphyte Three, Toronto, Canada). Test compounds were dissolved and diluted to desired concentrations in 100% DMSO. The compounds or DMSO controls (100 nL) were stamped into wells of a […] low volume optical plate (Corning Inc., Corning, NY) using the Echo 555 acoustic liquid handler (Labcyte Inc., San Jose, CA).
NBD1 protein was diluted to 0.2 mg/ml in S200 buffer (50 mM Tris-HCl, 150 mM NaCl, 5 mM MgCl2, 2 mM ATP, 2 mM DTT, pH7.6) containing 1% glycerol. 10 μL of protein solution was aliquoted into the 384-well plate harboring the test compounds and 10 μL mineral oil was overlayed onto the protein solution, using the epMotion robotic liquid handler (Eppendorf North America, Hauppauge, NY). After placing into the Stargazer instrument, the plate was heated at 1° C. per minute to 70° C. Images were captured from 25° C. to 70° C. every 0.5° C. At the end of the experiment run, instrument software integrated image files and analyzed data automatically. A linear regression curve was generated for each well, representing the increase in light scattering over time. A temperature of aggregation (Tagg) was calculated based on the inflection point of the curve. To better compare data across experiments the average Tagg for DMSO control wells was calculated and subtracted from values for wells containing compounds to obtain a “ΔTagg” value. These ΔTagg values reflect stabilizing efficacy of the compounds.

CFTR = target: T1, CFTR (Homo sapiens, UniProt P13569, DEL508-508); assay: TECC24 recording of CFTR-mediated transepithelial chloride transport in ΔF508 homozygous CF-HBE cells; format: cell-based; settings: 48 hours incubation, AUC of forskolin-stimulated IEQ, test agent AUC divided by vehicle (DMSO) AUC, primary CF-HBE cells
T1 construct: Primary human bronchial epithelial cells from a ΔF508 homozygous CF donor; host or cells: primary CF-HBE cells, ΔF508 homozygous donor
Experimental: Example 24. TECC24 AUC Fold Over DMSO @10 μM
The effects of a test agent on CFTR-mediated transepithelial chloride transport was measured using TECC24 recording analysis. Test agents were solubilized in DMSO. Solubilized test agents were mixed with incubation medium containing DMEM/F12, Ultroser G (2%; Crescent Chemical, catalog #67042), Hyclone Fetal Clone 11 (2%; GE Healthcare, catalog #SH30066.02), bovine brain extract (0.25%; Lonza, catalog #CC-4098), insulin (2.5 μg/mL), IL-13 (10 ng/mL), hydrocortisone (20 nM), transferrin ([…]), triiodothyronine (500 nM), ethanolamine (250 nM), epinephrine (1.5 μM), phosphoethanolamine (250 nM), and retinoic acid (10 nM). Primary human bronchial epithelial cells from a ΔF508 homozygous CF donor (CF-HBE cells; from University of North Carolina Cystic Fibrosis Tissue Procurement Center), grown on Transwell HTS 24-well cell culture inserts (Costar, catalog #3378), were exposed to test agents or controls dissolved in incubation medium. The CF-HBE cells were cultured at 36.5° C. for 48 hours before TECC24 recordings were performed in the presence or absence of test agent, a positive control or vehicle (DMSO).
Following incubation, the transwell cell culture inserts containing the test agent or control-treated CF-HBE cells were loaded onto a TECC24 apparatus (TECC v7 or MTECC v2; EP Design) to record the transepithelial voltage (VT) and resistance (TEER) using 4 AgCl electrodes per well configured in current-clamp mode. The apical and basolateral bath solutions both contained (in mM) 140 NaCl, 5 KCl, 2 CaCl2), 1 MgCl2, 10 Hepes, and 10 glucose (adjusted to pH 7.4 with NaOH). To inhibit basal Na+ absorption, the ENaC inhibitor benzamil (10 μM) was added to the bath. Then, the adenylate cyclase activator, forskolin (10 μM), was added to the bath to activate CFTR. The forskolin-stimulated Cl− transport was halted by addition of CFTR inhibitor-172 (20 μM) to the bath at the end of the experiment to confirm specificity. VT and TEER recordings were digitally acquired at routine intervals using TECC or MTECC software (EP Design). VT and TEER were transformed into equivalent transepithelial Cl− current (IEQ), and the Area Under the Curve (AUC) of the IEQ time course between forskolin and CFTR inhibitor-172 addition is generated using Excel (Microsoft). Efficacy is expressed as the ratio of the test agent AUC divided by vehicle AUC. EC50s based on AUC are generated using the non-linear regression log(agonist) vs. response function in Prism software (Graphpad) with HillSlope fixed=1.
If a test agent increased the AUC of the forskolin-stimulated IEQ relative to vehicle in CF-HBE cells, and this increase was inhibited by CFTR inhibitor-172, then the test agent was considered a CFTR corrector.

T1 sequence (P13569 with tags, fused parts or gaps DEL508-508): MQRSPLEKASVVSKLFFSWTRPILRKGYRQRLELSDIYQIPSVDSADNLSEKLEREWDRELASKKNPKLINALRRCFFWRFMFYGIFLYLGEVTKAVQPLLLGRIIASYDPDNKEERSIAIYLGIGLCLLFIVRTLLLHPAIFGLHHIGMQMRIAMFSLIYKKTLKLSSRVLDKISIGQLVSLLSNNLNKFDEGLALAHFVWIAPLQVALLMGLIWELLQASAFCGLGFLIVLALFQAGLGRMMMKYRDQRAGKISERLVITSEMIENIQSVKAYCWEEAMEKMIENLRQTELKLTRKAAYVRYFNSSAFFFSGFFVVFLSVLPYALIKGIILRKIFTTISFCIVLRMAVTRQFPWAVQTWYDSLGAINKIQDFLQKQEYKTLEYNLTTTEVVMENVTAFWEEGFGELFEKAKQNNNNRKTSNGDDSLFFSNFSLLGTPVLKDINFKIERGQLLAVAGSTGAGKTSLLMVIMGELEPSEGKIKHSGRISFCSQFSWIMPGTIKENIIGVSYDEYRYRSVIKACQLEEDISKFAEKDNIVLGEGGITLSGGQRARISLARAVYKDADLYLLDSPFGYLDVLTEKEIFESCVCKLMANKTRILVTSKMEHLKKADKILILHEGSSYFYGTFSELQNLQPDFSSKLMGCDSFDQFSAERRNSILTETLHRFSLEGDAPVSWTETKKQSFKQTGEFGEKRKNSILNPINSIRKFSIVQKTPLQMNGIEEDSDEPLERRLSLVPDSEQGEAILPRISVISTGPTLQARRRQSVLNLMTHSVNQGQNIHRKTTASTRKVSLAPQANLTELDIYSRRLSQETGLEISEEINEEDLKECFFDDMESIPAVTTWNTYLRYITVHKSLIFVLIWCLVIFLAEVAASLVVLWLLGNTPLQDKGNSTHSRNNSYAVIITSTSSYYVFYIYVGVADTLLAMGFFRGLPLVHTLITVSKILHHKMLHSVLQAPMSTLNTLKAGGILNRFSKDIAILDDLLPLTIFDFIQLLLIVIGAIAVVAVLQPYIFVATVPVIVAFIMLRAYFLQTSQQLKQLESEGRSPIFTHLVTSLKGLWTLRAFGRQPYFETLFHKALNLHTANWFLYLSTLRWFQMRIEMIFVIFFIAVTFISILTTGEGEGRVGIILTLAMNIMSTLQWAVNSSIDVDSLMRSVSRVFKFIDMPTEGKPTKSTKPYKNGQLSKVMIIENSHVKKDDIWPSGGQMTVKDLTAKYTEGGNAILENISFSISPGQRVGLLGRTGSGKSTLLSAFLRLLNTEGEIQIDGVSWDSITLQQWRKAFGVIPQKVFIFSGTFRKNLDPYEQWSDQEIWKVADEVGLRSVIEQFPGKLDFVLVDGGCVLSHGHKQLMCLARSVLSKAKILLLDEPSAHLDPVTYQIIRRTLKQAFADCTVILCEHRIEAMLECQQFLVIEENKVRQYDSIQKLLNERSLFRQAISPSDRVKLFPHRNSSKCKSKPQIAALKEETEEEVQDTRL

SMILES	TECC24 @ 10 uM over DMSO (CFTR)	DSLS NBD1/3D Human Stability delta-T (° C.) @ 100 (μM) (NBD1)
O=C(O)CCc1cccc(C2c3nc(-c4cc(Oc5c(F)cc6[nH]ccc6c5F)ccc4F)[nH]c3CCN2CC(F)F)c1F (stereo not drawn) [Example 12, 3-[3-[5-(2,2-difluoroethyl)-2-[5-[(4,6-difluoro-1H-indol-5-yl)oxy]-2-fluoro-phenyl]-1,4,6,7-tetrahydroimidazo[4,5-c]pyridin-4-yl]-2-fluoro-phenyl]propanoic acid]	B (AUC @10 uM between 4-12)	A (T ≥ 8° C.)
O=C(O)CCc1cccc([C@H]2NCCc3nc(-c4cc(Oc5c(F)cc6[nH]ccc6c5F)ccc4F)[nH]c32)c1F (single isomer, unassigned) [Example 3]	A (AUC @10 uM >=12)	A (T ≥ 8° C.)
Cc1c(-c2cc(Oc3c(F)cc4[nH]ccc4c3S(C)(=O)=O)ccc2F)nc2n1CCNC2c1cccc(CC(C)C(=O)O)c1F (stereo not drawn) [Example 8, 3-[2-fluoro-3-[2-[2-fluoro-5-[(6-fluoro-4-methylsulfonyl-1H-indol-5-yl)oxy]phenyl]-3-methyl-5,6,7,8-tetrahydroimidazo[1,2-a]pyrazin-8-yl]phenyl]-2-methyl-propanoic acid]	C (AUC @10 uM <= 4)	A (T ≥ 8° C.)
CC(Cc1cccc(C2c3nc(-c4cc(Oc5c(F)cc6[nH]ccc6c5F)ccc4F)[nH]c3CCN2C)c1F)C(=O)O (stereo not drawn) [Example 11, 3-[3-[2-[5-[(4,6-difluoro-1H-indol-5-yl)oxy]-2-fluoro-phenyl]-5-methyl-1,4,6,7-tetrahydroimidazo[4,5-c]pyridin-4-yl]-2-fluoro-phenyl]-2-methyl-propanoic acid]	C (AUC @10 uM <= 4)	A (T ≥ 8° C.)

The next lines start with results.

TECC24 @ 10 uM over DMSO (CFTR)	SMILES	DSLS NBD1/3D Human Stability delta-T (° C.) @ 100 (μM) (NBD1)
C (AUC @10 uM <= 4)	CS(=O)(=O)c1c(Oc2ccc(F)c(-c3nc4c([nH]3)C(c3cccc(CCC(=O)O)c3F)NCCC4)c2)c(F)cc2[nH]ccc12 (stereo not drawn) [Example 22, 3-[2-fluoro-3-[2-[2-fluoro-5-[(6-fluoro-4-methylsulfonyl-1H-indol-5-yl)oxy]phenyl]-3,4,5,6,7,8-hexahydroimidazo[4,5-c]azepin-4-yl]phenyl]propanoic acid]	A (T ≥ 8° C.)
C (AUC @10 uM <= 4)	O=C(O)Cc1cccc(C2OCCc3cn(-c4cc(Oc5c(F)cc6[nH]ccc6c5F)ccc4F)nc32)c1F (stereo not drawn) [Example 1, 2-(3-(2-(5-((4,6-difluoro-1H-indol-5-yl)oxy)-2-fluorophenyl)-2,4,5,7-tetrahydropyrano[3,4-c]pyrazol-7-yl)-2-fluorophenyl)acetic acid]	B (4-8° C.)

Reference: US20260242388A1, “NBD1 MODULATORS AND METHODS OF USING THE SAME” (Sionna Therapeutics Inc., priority 2023, published 2026)
